Legend:
Assay type in all cases: binding
Set-up in all cases: KINOMEscan: ABL1(F317L)-phosphorylated / KINOMEscan: ABL1(H396P)-nonphosphorylated / KINOMEscan: ABL1(H396P)-phosphorylated / KINOMEscan: ABL1(M351T)-phosphorylated / KINOMEscan: ABL1(T315I)-phosphorylated / KINOMEscan: ABL1-nonphosphorylated / KINOMEscan: ABL1-phosphorylated / KINOMEscan: ACVR2A / KINOMEscan: ACVR2B / KINOMEscan: ADCK3 / KINOMEscan: ADCK4 / KINOMEscan: AKT1 / KINOMEscan: AKT3 / KINOMEscan: ALK / KINOMEscan: ARK5 / KINOMEscan: AURKA / KINOMEscan: AURKC / KINOMEscan: BIKE / KINOMEscan: BMPR1A / KINOMEscan: BMPR1B / KINOMEscan: BMX / KINOMEscan: BRK / KINOMEscan: BRSK1 / KINOMEscan: BRSK2 / KINOMEscan: CAMK1 / KINOMEscan: CAMK1D / KINOMEscan: CAMK1G / KINOMEscan: CAMK2A / KINOMEscan: CAMK2B / KINOMEscan: AAK1 / KINOMEscan: CAMK2D / KINOMEscan: CAMK2G / KINOMEscan: ABL1(F317I)-nonphosphorylated / KINOMEscan: ABL1(F317I)-phosphorylated / KINOMEscan: ABL1(F317L)-nonphosphorylated: unit: % Ctrl
Conditions in all cases: Compound Concentration 10 µM
[1] = molecular target: T1, panel of 442 kinases (Homo sapiens, UniProt Q8NI60)
T1 construct: purchased KINOMEscan
T1 sequence (Q8NI60 163-647): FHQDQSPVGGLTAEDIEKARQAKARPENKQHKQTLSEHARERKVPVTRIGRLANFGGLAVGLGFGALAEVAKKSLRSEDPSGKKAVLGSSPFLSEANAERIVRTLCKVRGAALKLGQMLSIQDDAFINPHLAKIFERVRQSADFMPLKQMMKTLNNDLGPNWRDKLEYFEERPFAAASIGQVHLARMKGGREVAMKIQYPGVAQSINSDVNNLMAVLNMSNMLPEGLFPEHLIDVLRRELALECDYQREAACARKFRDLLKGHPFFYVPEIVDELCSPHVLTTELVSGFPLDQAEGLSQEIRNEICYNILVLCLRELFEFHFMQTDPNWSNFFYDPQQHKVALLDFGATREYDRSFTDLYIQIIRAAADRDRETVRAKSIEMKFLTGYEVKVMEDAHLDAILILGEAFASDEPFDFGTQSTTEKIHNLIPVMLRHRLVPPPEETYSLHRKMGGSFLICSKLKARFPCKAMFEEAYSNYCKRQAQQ
Source text: (§1) We assessed the selectivity of members of this scaffold using the KINOMEscan methodology across a near comprehensive panel of 442 kinases [[18,27]].

[2] = molecular target: T2, panel of 442 kinases (Homo sapiens, UniProt Q13153)
T2 construct: purchased KINOMEscan
T2 sequence (Q13153 whole entry): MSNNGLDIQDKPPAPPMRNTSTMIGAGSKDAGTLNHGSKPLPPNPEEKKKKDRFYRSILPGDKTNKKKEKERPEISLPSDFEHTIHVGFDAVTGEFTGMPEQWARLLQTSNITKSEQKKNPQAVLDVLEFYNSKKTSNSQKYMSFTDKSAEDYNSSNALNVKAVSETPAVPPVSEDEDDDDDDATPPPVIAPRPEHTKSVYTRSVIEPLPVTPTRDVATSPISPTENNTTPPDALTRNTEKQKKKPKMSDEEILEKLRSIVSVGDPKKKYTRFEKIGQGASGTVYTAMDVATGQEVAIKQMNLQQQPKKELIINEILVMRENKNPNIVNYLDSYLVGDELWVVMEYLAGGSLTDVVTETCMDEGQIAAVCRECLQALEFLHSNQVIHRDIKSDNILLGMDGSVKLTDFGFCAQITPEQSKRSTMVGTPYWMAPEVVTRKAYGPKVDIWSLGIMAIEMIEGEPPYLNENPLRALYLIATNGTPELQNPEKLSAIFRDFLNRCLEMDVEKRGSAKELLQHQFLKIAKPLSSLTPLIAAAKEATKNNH
Source text: as §1

[3] = molecular target: T3, panel of 442 kinases (Homo sapiens, UniProt Q15208)
T3 construct: purchased KINOMEscan
T3 sequence (Q15208 whole entry): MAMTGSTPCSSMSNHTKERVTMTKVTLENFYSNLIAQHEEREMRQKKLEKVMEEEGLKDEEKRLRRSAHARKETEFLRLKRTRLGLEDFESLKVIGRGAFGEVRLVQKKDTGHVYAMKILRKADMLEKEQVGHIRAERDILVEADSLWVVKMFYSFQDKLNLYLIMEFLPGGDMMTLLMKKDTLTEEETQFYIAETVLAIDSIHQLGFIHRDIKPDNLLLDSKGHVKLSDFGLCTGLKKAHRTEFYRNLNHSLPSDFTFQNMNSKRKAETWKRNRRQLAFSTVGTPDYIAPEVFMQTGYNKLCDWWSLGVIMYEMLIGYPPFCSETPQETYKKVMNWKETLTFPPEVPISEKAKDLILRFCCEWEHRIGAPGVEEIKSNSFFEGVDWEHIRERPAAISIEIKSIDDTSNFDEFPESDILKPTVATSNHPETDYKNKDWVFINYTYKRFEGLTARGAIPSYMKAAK
Source text: as §1

[4] = molecular target: T4, panel of 442 kinases (Homo sapiens, UniProt P10721, V559D/V654A)
T4 construct: purchased KINOMEscan
T4 sequence (P10721 26-976 V559D/V654A): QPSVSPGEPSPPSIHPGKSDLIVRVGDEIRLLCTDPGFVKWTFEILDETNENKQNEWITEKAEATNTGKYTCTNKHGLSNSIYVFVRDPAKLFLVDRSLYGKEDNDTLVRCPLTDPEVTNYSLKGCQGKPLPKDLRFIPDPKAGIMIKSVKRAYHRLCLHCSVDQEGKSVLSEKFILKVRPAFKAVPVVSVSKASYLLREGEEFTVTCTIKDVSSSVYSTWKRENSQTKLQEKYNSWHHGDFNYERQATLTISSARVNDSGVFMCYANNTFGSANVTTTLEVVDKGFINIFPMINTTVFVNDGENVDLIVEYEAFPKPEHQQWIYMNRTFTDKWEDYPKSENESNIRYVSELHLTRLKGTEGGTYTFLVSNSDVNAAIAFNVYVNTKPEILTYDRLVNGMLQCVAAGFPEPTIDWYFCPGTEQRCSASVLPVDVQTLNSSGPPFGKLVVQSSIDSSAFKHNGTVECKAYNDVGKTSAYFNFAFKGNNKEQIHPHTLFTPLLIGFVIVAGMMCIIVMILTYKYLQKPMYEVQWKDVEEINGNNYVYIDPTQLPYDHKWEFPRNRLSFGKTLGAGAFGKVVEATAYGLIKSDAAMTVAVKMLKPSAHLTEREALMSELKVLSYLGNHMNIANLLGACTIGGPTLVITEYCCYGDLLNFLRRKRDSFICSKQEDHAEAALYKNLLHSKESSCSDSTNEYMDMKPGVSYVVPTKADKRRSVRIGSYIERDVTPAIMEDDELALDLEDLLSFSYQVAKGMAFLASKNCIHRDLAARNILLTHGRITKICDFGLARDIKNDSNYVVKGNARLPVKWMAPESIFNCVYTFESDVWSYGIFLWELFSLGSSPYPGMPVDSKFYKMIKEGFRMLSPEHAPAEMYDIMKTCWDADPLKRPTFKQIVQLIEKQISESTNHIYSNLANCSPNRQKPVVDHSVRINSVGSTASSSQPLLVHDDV
Source text: as §1

COc1cc(C(=O)N2CCC(N3CCN(C)CC3)CC2)ccc1Nc1ncc2c(n1)N1CCc3cccc(c31)C(=O)N2C [Compound 24]
KINOMEscan: ADCK3 [1]: 56
KINOMEscan: PAK1 [2]: 85

CCOc1cc(C(=O)N2CCC(N3CCN(C)CC3)CC2)ccc1Nc1ncc2c(n1)N(C1CCCC1)c1ccccc1C(=O)N2C [Compound 26]
KINOMEscan: NDR1 [3]: 100
KINOMEscan: ADCK3 [1]: 59
KINOMEscan: KIT(V559D,V654A) [4]: 100
KINOMEscan: PAK1 [2]: 100

COc1cc(C(=O)N2CCC(N3CCN(C)CC3)CC2)ccc1Nc1ncc2c(n1)N(C1CCCC1)c1ccccc1C(=O)N2C [Compound 25, 11-cyclopentyl-2-((2-methoxy-4-(4-(4-methylpiperazin-1-yl)piperidine-1-carbonyl)phenyl)amino)-5-methyl-5H-benzo[e]pyrimido[5,4-b][1,4]diazepin-6(11H)-one]
KINOMEscan: NDR1 [3]: 100
KINOMEscan: ADCK3 [1]: 61
KINOMEscan: KIT(V559D,V654A) [4]: 100
KINOMEscan: PAK1 [2]: 82

COc1cc(C(=O)N2CCC(N3CCN(C)CC3)CC2)ccc1Nc1ncc2c(n1)N(C)c1ccccc1C(=O)N2C [15 (LRRK2-IN-1)]
KINOMEscan: NDR1 [3]: 96
KINOMEscan: ADCK3 [1]: 71
KINOMEscan: KIT(V559D,V654A) [4]: 100
KINOMEscan: PAK1 [2]: 95

— PMC3914206
